Data set [1] relates to MK-801-treated Wistar rats. Description: MK-801-induced hyperactivity in rats (Actometer). In kind it is in vivo, rat. The protocol: (§1) MK-801 (dizocilpine, (+)-5-methyl-10,11-dihydro-5H-dibenzo-[a,d]-cyclohepten-5,10-imine maleate; Sigma-Aldrich, St. Louis, MO, USA) was dissolved in saline. Compound 62 (LK00764) was dissolved in 10% Tween 80 saline solution. All solutions were made fresh shortly before injections. Drug doses were tested in a pseudo-random order derived from Latin square design with at least 72 h between consecutive tests. All drugs and vehicles were administered intraperitoneally (i.p.) in the volume of 1 mL/kg. Drug doses are reported as salts. Selection of the MK-801 dose (0.2 mg/kg) was based the previous experience with the compound [24]. All locomotor activity tests (duration—60 min) were performed 15 min after the administration of compounds.
We evaluated locomotor activity of rats in the Actometer apparatus. A detailed description of the apparatus has been presented before. […]
Glutamate NMDA receptor antagonist-induced hyperactivity in rodents is commonly used as a pharmacological animal model of schizophrenia in the screening of potential antipsychotics. […] Thus, we used MK-801 (0.2 mg/kg, i.p.) treatment to induce hyperactivity in rats and analyzed the effects of compound 62 (LK00764) at doses of 0.3, 1, 3, 5, and 10 mg/kg, i.p. on locomotor activity of MK-801-treated Wistar rats.

A further data set deals with intact Wistar rats. Description: Spontaneous locomotor activity of intact rats (Actometer). In kind it is in vivo, rat. Conditions: 0.3–10 mg/kg i.p., n = 9. The protocol:
as §1
We evaluated locomotor activity of rats in the Actometer apparatus. A detailed description of the apparatus has been presented before. Shortly, each box of the apparatus was equipped by photocell-based infrared sensors to assess horizontal and vertical activity. Wistar rats were tested in the apparatus following a one-week habituation period (baseline period). During this period, the animals were placed in locomotor activity boxes for 60 min per day, 6 days a week to habituate them to the environment. […]
Next, we analyzed the locomotor effects of compound 62 (LK00764, 0.3–10 mg/kg, i.p.) on the additional group of intact rats (n = 9).

A further data set concerns DAT-KO rats. Description: Spontaneous locomotor hyperactivity of dopamine transporter knockout (DAT-KO) rats. In kind it is in vivo, rat. How it is done:
as §1
We evaluated locomotor activity of rats in the Actometer apparatus. A detailed description of the apparatus has been presented before. Shortly, each box of the apparatus was equipped by photocell-based infrared sensors to assess horizontal and vertical activity. Wistar rats were tested in the apparatus following a one-week habituation period (baseline period). […]
Animals without DAT have a disrupted re-uptake of dopamine resulting in remarkably elevated extracellular dopamine levels and spontaneous locomotor hyperactivity. […] Thus, we next evaluated the effects of LK00764 (1–10 mg/kg, i.p.) on spontaneous locomotor hyperactivity of DAT-KO rats (n = 9).

The target in the next data set is T1, TAAR1 (Homo sapiens, UniProt Q96RJ0).
T1 sequence (Q96RJ0 1-339): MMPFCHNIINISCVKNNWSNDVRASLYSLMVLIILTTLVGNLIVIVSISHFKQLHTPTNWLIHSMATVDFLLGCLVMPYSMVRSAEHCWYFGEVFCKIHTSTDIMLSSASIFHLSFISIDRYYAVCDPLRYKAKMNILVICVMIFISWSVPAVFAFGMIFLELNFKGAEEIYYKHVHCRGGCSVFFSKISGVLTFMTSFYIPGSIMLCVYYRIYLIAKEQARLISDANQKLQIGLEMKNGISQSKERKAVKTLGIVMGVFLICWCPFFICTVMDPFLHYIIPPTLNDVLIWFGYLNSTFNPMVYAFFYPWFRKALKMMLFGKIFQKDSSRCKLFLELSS
Description: BRET-based cellular cAMP (EPAC biosensor) assay of TAAR1 agonism in transfected HEK-293 cells. Conditions: for Emax: HEK293, read-out: Emax: maximum observed activation of TAAR1 relative to that observed for 1 μM of β-PEA; for Emax: maximum observed activation of TAAR1 relative to that observed for 1 μM of β-PEA: relative to 1 μM β-PEA, mean from 3 BRET assays, errors ±5–10%.

The next data set deals with Wistar male rats. Description: Stress-induced hyperthermia (SIH) test. In kind it is in vivo, rat. Conditions: n = 8. The protocol:
SIH test is commonly used to evaluate the potential anti-anxiety effect of drugs. Thermometry was performed rectally in rats with a BIOSEB thermometer. Eight Wistar male rats were injected i.p. with vehicle or LK00764, dissolved in 10% tween 80 saline solution. Latin square design was used for the experiment. The first measurement was performed directly before the injection and the second measurement was performed 15 min later. The difference between the first and the second temperature was calculated.
Another behavioral paradigm known to be affected by TAAR1 agonists is the stress-induced hyperthermia test, which is believed to be a sensitive approach to evaluate the anxiolytic action of compounds [10, 42, 39a]. Thus, compound 62 (LK00764) was evaluated in this test at doses of 3 and 5 mg/kg, i.p. (Figure 7). At both doses, this compound was effective in suppressing stress-induced hyperthermia in rats (p < 0.05 and p < 0.001 for 3 and 5 mg/kg, respectively; Dunn’s test).

Setting [2] is: TAAR1 activation, BRET assay, HEK-293, mean from 3 assays.

Where two headings read alike, the source gives them in different places. Where only a bound is given, the exact number is not on record here.

Description for TAAR1: The Bioluminescence Resonance Energy Transfer approach (BRET) has been used for functional activity experiments. HEK-293 cells were transiently transfected with cDNA for TAARs and cAMP BRET biosensor (EPAC) and then plated in a 96-well plate, as described [23]. All compounds were tested at the initial concentration of 10 µM. […] A natural agonist of TAAR1 β-phenylethylamine (β-PEA) was used as a positive control.

What is called melting point is the temperature, or range, at which the solid turns liquid. As a reminder, the EC50 is the concentration needed to bring the measured effect to its halfway point. As a reminder, the Emax is the greatest response seen or fitted, relative to the assay's reference. Take `Cl.NCCc1nnc(-c2ccc(-c3ccc(Cl)cc3)cc2)[nH]1` [Compound 62, 2-(5-(4′-Chloro-(1,1′-biphenyl)-4-yl)-4H-1,2,4-triazol-3-yl)ethan-1-amine Hydrochloride]: the melting point was 247 to 249 °C. In addition, in data set [1] (0.3, 1, 3, 5, 10 mg/kg i.p., MK-801 0.2 mg/kg i.p., Friedman test, horizontal p < 0.05, vertical p < 0.01, n = 7), the “effect on MK-801-induced hyperactivity (horizontal and vertical activity)” value is listed as “dose-dependently mitigated”. For the same compound, the “effect on horizontal and vertical locomotor activity vs vehicle in MK-801-treated rats” value in data set [1] (doses of 5 and 10 mg/kg i.p., Dunnett's test p < 0.05) was “significant”. Also, the “vertical activity of intact rats” value in the data set on intact Wistar rats (Friedman p < 0.001) is “decreased”. For the same compound, in the data set on intact Wistar rats (Friedman p = 0.60), the “horizontal activity of intact rats” value was “did not affect”. In the data set on DAT-KO rats (1–10 mg/kg i.p., n = 9, Friedman p < 0.05), the “horizontal and vertical activity of DAT-KO rats” value was “significant dose-dependent decrease”. For the same compound, in the data set on DAT-KO rats (only the highest tested dose, 10 mg/kg i.p., Dunnett's test), the “locomotor hyperactivity of DAT-KO rats vs vehicle” value is “significantly (p < 0.05) diminished”. For the same compound, at TAAR1, the EC50 is 4 nM, the “potency relative to Ulotaront (times higher)” value was “more than 30 times” and the Emax amounted to 101%. In addition, in the data set on Wistar male rats (3 mg/kg i.p., p < 0.05 Dunn's test), the “suppression of stress-induced hyperthermia” value is listed as “effective”. Moreover, the “suppression of stress-induced hyperthermia” value in the data set with Wistar male rats (5 mg/kg i.p., p < 0.001 Dunn's test) is “effective”.

In turn, `Cc1ccc(Oc2ccc(-c3nnc(CCN)[nH]3)cc2)cc1.Cl` [Compound 54, 2-(5-(4-[4-Methylphenoxy]phenyl)-4H-1,2,4-triazol-3-yl)ethan-1-amine Hydrochloride] had a melting point of 234 to 236 °C. At TAAR1, the EC50 came to 150 nM and the Emax was determined as 94%.

As for `Cc1ccc(Oc2ccc(-c3nnc(CCN)[nH]3)cc2)cc1C.Cl` [Compound 51, 2-(5-(4-[3,4-Dimethylphenoxy]phenyl)-4H-1,2,4-triazol-3-yl)ethan-1-amine Hydrochloride], the melting point lay within 201 to 203 °C. For the same compound, on TAAR1, the midpoint of the response, the EC50, lay at 900 nM and the Emax is 77%.

`Cl.NCCc1nnc(-c2ccccc2OC(F)(F)F)[nH]1` [Compound 39, 2-(5-(2-[Trifluoromethoxy]phenyl)-4H-1,2,4-triazol-3-yl)ethan-1-amine Hydrochloride]: the melting point fell in the range of 208 to 211 °C. The EC50 entry on TAAR1 (setting [2]) is “inactive”. Also, the “Emax: maximum observed activation of TAAR1 relative to that observed for 1 μM of β-PEA” value on TAAR1 was “inactive”.

Regarding `Cl.NCCc1nnc(-c2ccc(-c3cccc(C(F)(F)F)c3)cc2)[nH]1` [Compound 63, 2-(5-(3′-Trifluoromethyl-(1,1′-biphenyl)-4-yl)-4H-1,2,4-triazol-3-yl)ethan-1-amine Hydrochloride], the melting point was 210 to 212 °C. Also, at TAAR1, the EC50 worked out at 250 nM and the Emax was 76%.

In the case of `Cl.NCCc1nnc(-c2cccc(O)c2)[nH]1` [Compound 55, 3-(5-(2-Aminoethyl)-4H-1,2,4-triazol-3-yl)phenol Hydrochloride], the melting point lay in the range of 234 to 235 °C. On TAAR1, the EC50 was above 1000 nM and the maximal effect (Emax) turned out to be 88%.

Turning to `Cl.NCCc1nnc(-c2cnccn2)[nH]1` [Compound 38, 2-(5-(Pyrazin-2-yl)-4H-1,2,4-triazol-3-yl)ethan-1-amine Hydrochloride], the melting point lay within 184 to 186 °C. On TAAR1 (setting [2]), the EC50 result is “inactive”. Further, on TAAR1, the “Emax: maximum observed activation of TAAR1 relative to that observed for 1 μM of β-PEA” value was “inactive”.

As for `Cc1cc(-c2nnc(CCN)[nH]2)ccc1OCc1cccc(F)c1.Cl` [Compound 47, 2-(5-(4-[(3-Fluorobenzyl)oxy]-3-methylphenyl)-4H-1,2,4-triazol-3-yl)ethan-1-amine Hydrochloride], the melting point was in the range of 215 to 216 °C. Further, on TAAR1, the EC50 was found to be 142 nM and the Emax amounted to 106%.

On to `Cc1cc(-c2nnc(CCN)[nH]2)ccc1O.Cl` [Compound 57, 4-(5-(2-Aminoethyl)-4H-1,2,4-triazol-3-yl)-2-methylphenol Hydrochloride], for which the melting point was 158 to 160 °C. Moreover, on TAAR1, the EC50 was above 1000 nM and the Emax is 90%.

The compound `Cl.NCCc1nnc(-c2ccc(C(F)(F)F)cc2)[nH]1` [Compound 15, 2-(5-(4-[Trifluoromethyl]phenyl)-4H-1,2,4-triazol-3-yl)ethan-1-amine Hydrochloride] registered a melting point of 254 to 255 °C. Also, the EC50 result at TAAR1 (setting [2]) is “inactive”. Besides, the “Emax: maximum observed activation of TAAR1 relative to that observed for 1 μM of β-PEA” value at TAAR1 is “inactive”.

The compound `CCOc1cc(-c2nnc(CCN)[nH]2)cc(OCC)c1OCC.Cl` [Compound 32, 2-(5-(3,4,5-Triethoxyphenyl)-4H-1,2,4-triazol-3-yl)ethan-1-amine Hydrochloride] returned a melting point of 253 to 255 °C. Besides, the EC50 result at TAAR1 (setting [2]) was “inactive”. For the same compound, the “Emax: maximum observed activation of TAAR1 relative to that observed for 1 μM of β-PEA” value at TAAR1 was “inactive”.
